The values that follow are results of earlier work, collected in paper PMC6172068 (Cancer Science, 2018).

Series [1] deals with AML. As to conditions: sorafenib plus intensive chemotherapy, patients aged <60 years; cited from earlier work.
The subject of series [2] is FLT3 mutation-positive R/R AML. The settings on record: cited from earlier work.
The test system of series [3] is AML. As to conditions: single agent; cited from earlier work.

Regarding `CNC(=O)c1cc(Oc2ccc(NC(=O)Nc3ccc(Cl)c(C(F)(F)F)c3)cc2)ccn1` [sorafenib], in the series on AML [1], the “3-year event-free survival rate” value was 40%. With `CC1(COc2ccc3c(c2)ncn3-c2ccc3cccc(N4CCC(N)CC4)c3n2)COC1` [crenolanib], the antileukemic activity result in series [2] is recorded as “strong antileukemic activity”. On to `CO[C@@H]1[C@H](N(C)C(=O)c2ccccc2)C[C@H]2O[C@]1(C)n1c3ccccc3c3c4c(c5c6ccccc6n2c5c31)C(=O)NC4` [midostaurin], for which, in the series on AML [3], the CR entry is “not achieved”.
